ChEMBL document CHEMBL1201862, “PubChem BioAssay data set” (2004)
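Where inhibition never reached the appropriate level, the endpoint shown equals the highest concentration tested. Otherwise, values were interpolated linearly from a five-concentration, 48-hour dose response in 96-well plates. GI50 is the concentration that inhibits growth by half.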 Active and inactive are the calls of the source. Cut-off read from the data, not from the text of the source: active = GI50 up to about 1.1 µM and inactive = higher.

Assays:
Experiment in all cases: inhibition of tumour cell growth, NCI panel, 48 h
[1] = test system: NCI-H522
[2] = test system: CCRF-CEM
[3] = test system: SNB-75
[4] = test system: A549
[5] = test system: RPMI-8226
[6] = test system: SW-620
[7] = test system: ACHN
[8] = test system: IGROV-1
[9] = test system: UACC-257
[10] = test system: M14
[11] = test system: EKVX
[12] = test system: NCI-H23
[13] = test system: K562
[14] = test system: U-251
[15] = test system: UACC-62
[16] = test system: NCI-H460
[17] = test system: SNB-19
[18] = test system: OVCAR-3

Measured: GI50

COc1ccc(-c2cc3ccccc3[nH]c2=O)cc1OC
inactive: [1] > 100 µM | [2] > 100 µM | [3] > 100 µM | [4] > 100 µM | [5] > 100 µM | [6] > 100 µM | [7] > 100 µM | [8] > 100 µM | [9] > 100 µM | [10] > 100 µM | [11] > 100 µM | [12] > 100 µM | [13] > 100 µM | [14] 71.6 µM | [15] > 100 µM | [16] > 100 µM | [17] > 100 µM

Cn1c2ccccc2c(=O)c2cccc(C(=O)NC(CCCNC(=N)N)C(=O)O)c21 (stereo not given)
inactive: [3] > 100 µM | [4] > 100 µM | [5] > 100 µM | [6] > 100 µM | [7] > 100 µM | [8] 30.1 µM | [9] > 100 µM | [10] > 100 µM | [11] > 100 µM | [12] > 100 µM | [13] > 100 µM | [14] > 100 µM | [15] > 100 µM | [16] > 100 µM | [17] > 100 µM | [18] > 100 µM

C[C@@]1(Br)C[C@@](C)(Cl)[C@@H](Br)CC1/C=C/Cl (stereo not given in full)
inactive: [2] 11.1 µM | [3] 12.8 µM | [4] 17.7 µM | [5] 16 µM | [6] 26.9 µM | [7] 18.1 µM | [8] 8.15 µM | [9] 17.9 µM | [10] 16.6 µM | [12] 28.6 µM | [13] 15.3 µM | [14] 19.3 µM | [15] > 10 µM | [16] 28.6 µM | [17] 18.6 µM | [18] 15.1 µM

Cc1nc(Cl)nc(Cl)c1C
inactive: [1] > 100 µM | [2] > 100 µM | [3] > 100 µM | [4] > 100 µM | [5] > 100 µM | [6] > 100 µM | [7] > 100 µM | [8] > 100 µM | [9] > 100 µM | [10] > 100 µM | [11] > 100 µM | [12] > 100 µM | [13] > 100 µM | [14] > 100 µM | [16] > 100 µM | [17] > 100 µM | [18] > 100 µM

Cc1cn(C2CC3C(COCN3O)O2)c(=O)[nH]c1=O (stereo not given)
inactive: [2] > 100 µM | [3] 97.3 µM | [4] > 100 µM | [5] > 100 µM | [6] > 100 µM | [7] > 100 µM | [8] > 100 µM | [9] > 100 µM | [10] > 100 µM | [11] > 100 µM | [12] > 100 µM | [13] > 100 µM | [14] > 100 µM | [15] > 100 µM | [16] > 100 µM | [17] > 100 µM | [18] > 100 µM

COc1ccc(N[S+]([O-])c2ccccc2OC)cc1 (stereo not given)
inactive: [1] 5.26 µM | [2] 26.1 µM | [4] 16.2 µM | [5] 18.7 µM | [6] 22.7 µM | [7] 20.4 µM | [8] 7.87 µM | [9] 33.7 µM | [10] 33.3 µM | [11] 38.9 µM | [12] 40.8 µM | [13] 8.28 µM | [14] 12.5 µM | [15] 2.07 µM | [16] 16 µM | [17] 36.2 µM | [18] 61.4 µM
